Results published in PubChem BioAssay AID330 (DTP/NCI, 2004).
Values joined by “and” are separate entries in the source; they are usually repeats but may differ in a detail not shown here. Equal values may be shown once. Inconclusive results and toxic doses are left out. Rule for the calls: active = survival T/C of 150% or more; inactive = T/C below 125% in these data.

Tested on: P388 leukemia ip, CD2F1 mice, survival T/C
Assay: NCI In Vivo Anticancer Drug Screen. Data for tumor model P388 Leukemia (intraperitoneal) in CD2F1 (CDF1) mice
Conditions: endpoint: median survival time, higher = longer survival
How it was run: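 Mice carrying the transplanted tumor received test compound or vehicle. Survival was recorded in each group, and the value is the treated-group measurement divided by that of the vehicle-treated control group.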

[1] = dose: 12.5 mg/kg/injection, schedule: Q01DX005 (ip), vehicle: saline
[2] = dose: 25.0 mg/kg/injection, schedule: Q01DX005 (ip), vehicle: saline
[3] = dose: 50.0 mg/kg/injection, schedule: Q01DX005 (ip), vehicle: saline
[4] = dose: 100.0 mg/kg/injection, schedule: Q04DX003 (ip), vehicle: Klucel (hydroxypropylcellulose) (HPC)
[5] = dose: 200.0 mg/kg/injection, schedule: Q04DX003 (ip), vehicle: Klucel (hydroxypropylcellulose) (HPC)
[6] = dose: 400.0 mg/kg/injection, schedule: Q04DX003 (ip), vehicle: Klucel (hydroxypropylcellulose) (HPC)
[7] = dose: 50.0 mg/kg/injection, schedule: Q01DX005 (ip), vehicle: saline with Tween-80
[8] = dose: 100.0 mg/kg/injection, schedule: Q01DX001 (ip), vehicle: saline with Tween-80
[9] = dose: 100.0 mg/kg/injection, schedule: Q01DX005 (ip), vehicle: saline with Tween-80
[10] = dose: 200.0 mg/kg/injection, schedule: Q01DX005 (ip), vehicle: saline with Tween-80
[11] = dose: 50.0 mg/kg/injection, schedule: Q01DX009 (ip), vehicle: saline with Tween-80
[12] = dose: 100.0 mg/kg/injection, schedule: Q01DX009 (ip), vehicle: saline with Tween-80
[13] = dose: 100.0 mg/kg/injection, schedule: Q04DX003 (ip), vehicle: saline with Tween-80
[14] = dose: 200.0 mg/kg/injection, schedule: Q04DX003 (ip), vehicle: saline with Tween-80
[15] = dose: 400.0 mg/kg/injection, schedule: Q04DX003 (ip), vehicle: saline with Tween-80
[16] = dose: 100.0 mg/kg/injection, schedule: Q01DX005 (ip), vehicle: saline
[17] = dose: 200.0 mg/kg/injection, schedule: Q01DX005 (ip), vehicle: saline
[18] = dose: 60.0 mg/kg/injection, schedule: Q01DX005 (ip), vehicle: saline with Tween-80
[19] = dose: 120.0 mg/kg/injection, schedule: Q01DX005 (ip), vehicle: saline with Tween-80
[20] = dose: 240.0 mg/kg/injection, schedule: Q01DX005 (ip), vehicle: saline with Tween-80

Measured: T/C

CCc1ccc[n+](CCC2CNc3ccccc32)c1 (centres undefined)
inactive: [1] 98 % of control | [2] 100 % of control | [3] 100 % of control and 110 % of control

CCC1(CC2CCCN(C)C2)c2ccccc2Sc2ccccc21 (centres undefined)
inactive: [1] 98 % of control | [2] 98 % of control | [3] 91 % of control

COC(=O)C1c2c(C)cc3n2C(C(C)=CC3)C1C(=O)OC (centres undefined)
inactive: [4] 99 % of control | [5] 96 % of control | [6] 99 % of control

CN1C(=O)/C(=C2\SC(=O)N(CN3CCOCC3)C2=O)c2cc(Br)ccc21
inactive: dose: 50.0 mg/kg/injection, schedule: Q01DX005 (ip), vehicle: Klucel (hydroxypropylcellulose) (HPC) 88 % of control | dose: 100.0 mg/kg/injection, schedule: Q01DX005 (ip), vehicle: Klucel (hydroxypropylcellulose) (HPC) 89 % of control | dose: 200.0 mg/kg/injection, schedule: Q01DX005 (ip), vehicle: Klucel (hydroxypropylcellulose) (HPC) 97 % of control

CNC(=O)OCc1c(COC(=O)NC)c(-c2ccc(Cl)c(Cl)c2)n2c1SCC2
inactive: [7] 106 % of control and 123 % of control

Cn1c2cc([N+](=O)[O-])ccc2c(=O)c2c(O)cc(O)cc21
inactive: [8] 101 % of control | dose: 200.0 mg/kg/injection, schedule: Q01DX001 (ip), vehicle: saline with Tween-80 92 % of control | dose: 400.0 mg/kg/injection, schedule: Q01DX001 (ip), vehicle: saline with Tween-80 104 % of control

O=C(O)CCCC1CCCCC1.[Mn]
inactive: [7] 116 % of control | [9] 108 % of control | [10] 99 % of control

C/C(=N/O)[c-]1[c-][c-][c-][c-]1.[Fe].[c-]1[c-][c-][cH-][c-]1
inactive: dose: 25.0 mg/kg/injection, schedule: Q01DX009 (ip), vehicle: saline with Tween-80 120 % of control | [11] 115 % of control | [12] 100 % of control

CC(O)C(NC(=O)C(Cc1ccc(O)cc1)NC(=O)C(CCCCN)N(C(=O)OCc1ccccc1)C(=O)OCc1ccccc1)C(=O)OCc1ccccc1 (centres undefined)
inactive: [7] 94 % of control | [9] 92 % of control | [10] 93 % of control

[CH3][Sn]([CH3])([O]S(=O)c1ccc(Cl)cc1)[O]S(=O)c1ccc(Cl)cc1 (centres undefined)
inactive: dose: 100.0 mg/kg/injection, schedule: Q01DX001 (ip), vehicle: Klucel (hydroxypropylcellulose) (HPC) 114 % of control | dose: 200.0 mg/kg/injection, schedule: Q01DX001 (ip), vehicle: Klucel (hydroxypropylcellulose) (HPC) 105 % of control

CCCCNC(C)(C)C(SSSC(c1cccs1)C(C)(C)NCCCC)c1cccs1 (centres undefined)
inactive: [7] 121 % of control | [9] 120 % of control | [13] 101 % of control | [10] 123 % of control | [14] 105 % of control | [15] 105 % of control

Nc1ccccc1C(=O)NCCCCCCN1CCN(c2cccc(Cl)c2)CC1
inactive: [11] 92 % of control | [12] 90 % of control | dose: 200.0 mg/kg/injection, schedule: Q01DX009 (ip), vehicle: saline with Tween-80 96 % of control

CN(CCCc1nc2ccccc2[nH]1)N=O
inactive: [4] 100 % of control | [5] 101 % of control | [6] 100 % of control

O=C1CC(C(=O)O)C(C(=O)O)O1 (centres undefined)
inactive: [3] 100 % of control | [16] 111 % of control | [17] 93 % of control

O=c1oc2ccccc2cc1S(=O)(=O)c1ccc(Cl)cc1
inactive: [18] 91 % of control | [19] 92 % of control | [20] 91 % of control

COC(=O)[C@@]12OC[C@]34[C@H]([C@@H](O)[C@@H]1O)[C@@]1(C)CC(=O)C(O)=C(C)[C@@H]1C[C@H]3OC(=O)[C@H](OC(=O)/C=C(\C)C1(C)CO1)[C@@H]24 (some centres undefined)
inactive: dose: 0.12 mg/kg/injection, schedule: Q01DX009 (ip), vehicle: saline + alcohol 119 % of control | dose: 0.5 mg/kg/injection, schedule: Q01DX009 (ip), vehicle: saline + alcohol 105 % of control

CC(=O)OC1CCC2C3CCC4=CC(=O)C(C(O)(C(F)(F)F)C(F)(F)F)CC4(C)C3CCC12C (centres undefined)
inactive: dose: 100.0 mg/kg/injection, schedule: Q01DX001 (sc), vehicle: steriod suspending solution 100 % of control | dose: 200.0 mg/kg/injection, schedule: Q01DX001 (sc), vehicle: steriod suspending solution 100 % of control | dose: 400.0 mg/kg/injection, schedule: Q01DX001 (sc), vehicle: steriod suspending solution 104 % of control

CCOC(=O)N1CCc2[nH]oc(=O)c2CC1
inactive: dose: 6.25 mg/kg/injection, schedule: Q01DX009 (ip), vehicle: saline 101 % of control and 107 % of control | dose: 12.5 mg/kg/injection, schedule: Q01DX009 (ip), vehicle: saline 110 % of control and 95 % of control | dose: 25.0 mg/kg/injection, schedule: Q01DX009 (ip), vehicle: saline 99 % of control

COC(=O)c1c[n+]([O-])ccc1OC
inactive: [3] 102 % of control | [16] 106 % of control | [17] 102 % of control

NC(C(=O)O)C(F)C(=O)O (centres undefined)
inactive: dose: 10.0 mg/kg/injection, schedule: Q01DX009 (ip), vehicle: saline 109 % of control | dose: 20.0 mg/kg/injection, schedule: Q01DX009 (ip), vehicle: saline 106 % of control | dose: 40.0 mg/kg/injection, schedule: Q01DX009 (ip), vehicle: saline 100 % of control

O=C(O)CNOCc1ccccc1
inactive: dose: 12.5 mg/kg/injection, schedule: Q01DX009 (ip), vehicle: other 95 % of control | dose: 25.0 mg/kg/injection, schedule: Q01DX009 (ip), vehicle: other 102 % of control | dose: 50.0 mg/kg/injection, schedule: Q01DX009 (ip), vehicle: other 102 % of control | dose: 100.0 mg/kg/injection, schedule: Q01DX009 (ip), vehicle: other 93 % of control | dose: 200.0 mg/kg/injection, schedule: Q01DX009 (ip), vehicle: other 89 % of control

Cc1ccc(NS(=O)(=O)N2CCCCC2)cc1
inactive: dose: 12.5 mg/kg/injection, schedule: Q01DX009 (ip), vehicle: Klucel (hydroxypropylcellulose) (HPC) 106 % of control | dose: 25.0 mg/kg/injection, schedule: Q01DX009 (ip), vehicle: Klucel (hydroxypropylcellulose) (HPC) 95 % of control | dose: 50.0 mg/kg/injection, schedule: Q01DX009 (ip), vehicle: Klucel (hydroxypropylcellulose) (HPC) 98 % of control | dose: 100.0 mg/kg/injection, schedule: Q01DX009 (ip), vehicle: Klucel (hydroxypropylcellulose) (HPC) 116 % of control | dose: 200.0 mg/kg/injection, schedule: Q01DX009 (ip), vehicle: Klucel (hydroxypropylcellulose) (HPC) 115 % of control | dose: 400.0 mg/kg/injection, schedule: Q01DX009 (ip), vehicle: Klucel (hydroxypropylcellulose) (HPC) 113 % of control

CC(Cc1ccccc1)NC(=O)C1CC2CCCCN2C1C (centres undefined)
inactive: [18] 97 % of control | [19] 95 % of control

CCOC(OCC)c1cccc([N+](=O)[O-])c1
inactive: [13] 112 % of control | [14] 106 % of control | [15] 117 % of control

[CH2-]N(CC)CC.[CH2-]N(CC)CC.[Rh].[Rh].[Rh].[c-]1[c-][c-][cH-][c-]1.[c-]1[c-][c-][cH-][c-]1.[c-]1[c-][c-][cH-][c-]1
inactive: dose: 6.25 mg/kg/injection, schedule: Q04DX002 (ip), vehicle: saline 108 % of control and 96 % of control | dose: 12.5 mg/kg/injection, schedule: Q04DX002 (ip), vehicle: saline 113 % of control and 115 % of control and 91 % of control | dose: 25.0 mg/kg/injection, schedule: Q04DX002 (ip), vehicle: saline 99 % of control and 103 % of control and 113 % of control | dose: 50.0 mg/kg/injection, schedule: Q04DX002 (ip), vehicle: saline 104 % of control and 91 % of control

C[N+]1(C)N=C([O-])N(c2ccccc2F)C1=O
inactive: [4] 99 % of control | [5] 91 % of control

CCCCS(=O)(=O)C(C)(Cl)C(=O)OCC (centres undefined)
inactive: dose: 25.0 mg/kg/injection, schedule: Q01DX001 (ip), vehicle: saline with Tween-80 100 % of control | dose: 50.0 mg/kg/injection, schedule: Q01DX001 (ip), vehicle: saline with Tween-80 100 % of control | [8] 106 % of control and 93 % of control

COC1=CC(=O)/C(=C(O)/C=C/c2ccccc2)C(=O)C1(C)C
inactive: [18] 108 % of control | [19] 115 % of control | [20] 123 % of control

CC1(C)N=C(N)N=C(N)N1c1ccc(F)cc1
inactive: dose: 12.5 mg/kg/injection, schedule: Q01DX005 (ip), vehicle: Klucel (hydroxypropylcellulose) (HPC) 110 % of control | dose: 25.0 mg/kg/injection, schedule: Q01DX005 (ip), vehicle: Klucel (hydroxypropylcellulose) (HPC) 113 % of control
